From ChEMBL document CHEMBL5154654, “Design, synthesis and biological evaluation of 7-((7H-pyrrolo[2,3-d]pyrimidin-4-yl)oxy)-2,3-dihydro-1H-inden-1-one derivatives as potent FAK inhibitors for the treatment of ovarian cancer” (Eur J Med Chem, 2022) come the findings set out here.

In brackets after ≈: the same amount, converted by molar mass. Activity calls are given as the source filed them.

Data set [1] deals with Receptor-type tyrosine-protein kinase FLT3 (Homo sapiens) (UniProt P36888). The experiment in a line: Inhibition of FLT3 (unknown origin) at 1 uM incubated for 40 mins in presence of Mg/ATP mix relative to control.
Sequence of Receptor-type tyrosine-protein kinase FLT3 (Homo sapiens) (P36888 whole entry): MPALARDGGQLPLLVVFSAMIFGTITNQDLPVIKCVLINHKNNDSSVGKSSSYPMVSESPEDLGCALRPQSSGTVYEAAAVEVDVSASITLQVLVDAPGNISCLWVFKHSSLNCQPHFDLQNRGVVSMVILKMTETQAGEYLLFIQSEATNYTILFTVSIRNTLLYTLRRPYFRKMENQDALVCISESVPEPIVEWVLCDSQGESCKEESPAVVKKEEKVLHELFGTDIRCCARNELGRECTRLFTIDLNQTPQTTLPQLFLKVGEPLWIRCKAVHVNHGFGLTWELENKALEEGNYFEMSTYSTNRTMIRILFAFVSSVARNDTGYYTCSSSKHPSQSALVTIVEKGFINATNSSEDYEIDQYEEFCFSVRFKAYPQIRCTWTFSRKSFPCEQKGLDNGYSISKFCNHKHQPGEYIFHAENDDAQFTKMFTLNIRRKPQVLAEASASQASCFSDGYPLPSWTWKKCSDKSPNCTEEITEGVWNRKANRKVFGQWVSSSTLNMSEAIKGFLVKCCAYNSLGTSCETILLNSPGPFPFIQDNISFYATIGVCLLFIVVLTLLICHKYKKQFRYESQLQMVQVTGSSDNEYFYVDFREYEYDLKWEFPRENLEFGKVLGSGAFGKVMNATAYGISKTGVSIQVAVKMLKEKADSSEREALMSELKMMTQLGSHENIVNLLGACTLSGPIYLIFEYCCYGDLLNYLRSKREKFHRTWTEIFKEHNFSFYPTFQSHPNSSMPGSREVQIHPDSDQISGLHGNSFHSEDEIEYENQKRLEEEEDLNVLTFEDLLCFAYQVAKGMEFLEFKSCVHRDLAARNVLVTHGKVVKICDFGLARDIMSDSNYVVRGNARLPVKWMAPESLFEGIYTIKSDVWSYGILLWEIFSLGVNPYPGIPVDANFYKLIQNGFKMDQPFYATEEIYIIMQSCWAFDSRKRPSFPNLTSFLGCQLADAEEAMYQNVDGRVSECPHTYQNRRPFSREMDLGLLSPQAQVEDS
The species entered for the next data set is Homo sapiens. Put plainly: Inhibition of MEK (unknown origin) at 1 uM incubated for 40 mins in presence of Mg/ATP mix relative to control.
The test system of data set [2] is PA-1. The experiment in a line: Down-regulation of MMP-9 expression in human PA-1 cells at 2 uM measured after 0.5 to 6 hrs. It is filed as functional, cell-based. To be noted: time 0.5-6 hrs.
Data set [3] can be described thus: Toxicity in female BALB/c nude mouse xenografted with human PA-1 cells assessed as liver damage at 60 mg/kg, po administered once daily for 21 days. It is filed as organism-based. To be noted: in vivo, 504 h, time 21 day.
The subject of data set [4] is PA-1. The experiment in a line: Inhibition of migration of human PA-1 cells at 2 uM measured after 24 hrs by Transwell assay. It is filed as functional, cell-based.
A short description of data set [5]: Metabolic stability in human liver microsomes assessed as intrinsic clearance incubated for 120 mins in presence of NADPH by LC-MS/MS analysis. It is filed as ADME, Microsome. To be noted: read-out: CLH.
In data set [6] the target is Tyrosine-protein kinase Fes/Fps (Homo sapiens) (UniProt P07332). The experiment in a line: Inhibition of Fes (unknown origin) at 1 uM incubated for 40 mins in presence of Mg/ATP mix relative to control.
Sequence of Tyrosine-protein kinase Fes/Fps (Homo sapiens) (P07332 whole entry): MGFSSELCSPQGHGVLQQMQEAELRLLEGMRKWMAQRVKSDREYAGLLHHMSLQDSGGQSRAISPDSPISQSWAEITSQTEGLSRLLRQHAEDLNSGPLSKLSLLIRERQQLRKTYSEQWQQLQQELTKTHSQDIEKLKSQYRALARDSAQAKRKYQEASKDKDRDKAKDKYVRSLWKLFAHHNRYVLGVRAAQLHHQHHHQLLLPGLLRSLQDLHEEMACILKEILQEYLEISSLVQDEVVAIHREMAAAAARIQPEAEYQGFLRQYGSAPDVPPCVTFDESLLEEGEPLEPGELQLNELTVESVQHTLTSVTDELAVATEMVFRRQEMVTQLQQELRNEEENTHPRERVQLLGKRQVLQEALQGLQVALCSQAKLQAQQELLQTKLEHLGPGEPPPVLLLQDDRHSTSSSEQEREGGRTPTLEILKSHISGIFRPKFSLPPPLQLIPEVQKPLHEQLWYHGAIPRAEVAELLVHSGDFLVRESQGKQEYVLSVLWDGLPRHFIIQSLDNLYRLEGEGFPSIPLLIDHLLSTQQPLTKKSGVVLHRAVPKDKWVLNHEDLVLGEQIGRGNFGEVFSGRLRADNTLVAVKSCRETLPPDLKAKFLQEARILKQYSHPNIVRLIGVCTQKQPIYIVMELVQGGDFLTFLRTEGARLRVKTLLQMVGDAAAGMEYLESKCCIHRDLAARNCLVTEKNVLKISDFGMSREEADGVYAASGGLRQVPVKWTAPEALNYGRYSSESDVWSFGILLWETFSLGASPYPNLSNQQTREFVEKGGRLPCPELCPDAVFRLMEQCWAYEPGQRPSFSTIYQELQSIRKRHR
A short description of data set [7]: Aqueous solubility of compound. Type of data set: physicochemical. To be noted: aqueous (not further specified).
The nature of data set [8]: Toxicity in female BALB/c nude mouse xenografted with human PA-1 cells assessed as heart damage at 60 mg/kg, po administered once daily for 21 days. It is filed as organism-based. To be noted: in vivo, 504 h, time 21 day. (Xenograft models place foreign cells or tissue in a host animal.)
Data set [9] concerns the target Leucine-rich repeat serine/threonine-protein kinase 2 (Homo sapiens) (UniProt Q5S007). The experiment in a line: Inhibition of LRRK2 (unknown origin) at 1 uM incubated for 40 mins in presence of Mg/ATP mix relative to control.
The nature of data set [10]: Toxicity in female BALB/c nude mouse xenografted with human PA-1 cells assessed as effect on body weight at 60 mg/kg, po administered once daily for 21 days. Type of data set: organism-based. To be noted: in vivo, 504 h, time 21 day.
Data set [11] concerns the target T1, Focal adhesion kinase 1 (Homo sapiens, UniProt Q05397). The following applies: PA-1, dose 10.0 nM.
Description: Inhibition of FAK in human PA-1 cells assessed as suppression of FAK autophosphorylation at 10 nM and measured by Western blotting analysis
Data set [12] is described as follows: Metabolic stability in human liver microsomes assessed as half-life incubated for 120 mins in presence of NADPH by LC-MS/MS analysis. It is filed as ADME, Microsome.
Data set [13] has as its target ALK tyrosine kinase receptor (Homo sapiens) (UniProt Q9UM73). The experiment in a line: Inhibition of ALK (unknown origin) at 1 uM incubated for 40 mins in presence of Mg/ATP mix relative to control.
In data set [14] the test system is PA-1. The experiment in a line: Down-regulation of MMP-2 expression in human PA-1 cells at 2 uM measured after 0.5 to 6 hrs. Type of data set: functional, cell-based. To be noted: time 0.5-6 hrs.
Data set [15] deals with Serine/threonine-protein kinase 33 (Homo sapiens) (UniProt Q9BYT3). The experiment in a line: Inhibition of STK33 (unknown origin) at 1 uM incubated for 40 mins in presence of Mg/ATP mix relative to control.
Sequence of Serine/threonine-protein kinase 33 (Homo sapiens) (Q9BYT3 whole entry, looked up): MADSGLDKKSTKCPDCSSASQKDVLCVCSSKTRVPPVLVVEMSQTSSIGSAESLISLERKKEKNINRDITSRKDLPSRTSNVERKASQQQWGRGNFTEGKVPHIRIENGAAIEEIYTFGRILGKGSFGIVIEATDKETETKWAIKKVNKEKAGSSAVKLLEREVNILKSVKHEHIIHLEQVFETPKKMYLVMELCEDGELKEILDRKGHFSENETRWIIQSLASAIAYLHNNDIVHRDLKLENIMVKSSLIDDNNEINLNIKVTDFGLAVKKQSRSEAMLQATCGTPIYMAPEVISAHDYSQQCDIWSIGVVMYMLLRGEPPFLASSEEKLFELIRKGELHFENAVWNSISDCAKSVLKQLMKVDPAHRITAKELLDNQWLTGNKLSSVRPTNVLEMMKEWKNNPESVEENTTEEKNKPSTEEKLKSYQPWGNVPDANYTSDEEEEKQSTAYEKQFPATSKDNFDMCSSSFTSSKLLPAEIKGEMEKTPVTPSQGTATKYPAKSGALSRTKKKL
Data set [16] in a line: AUC (total) in Sprague-Dawley rat at 20 mg/kg, po. Also noted: dose 20 mg/kg, route po. It is filed as ADME, organism-based. The following applies: in vivo.
A short description of data set [17]: Tmax in Sprague-Dawley rat at 20 mg/kg, po. It is filed as ADME, organism-based. To be noted: in vivo.
Data set [18] in a line: Half-life in Sprague-Dawley rat at 20 mg/kg, po. To be noted: in vivo. Type of data set: ADME, organism-based.
Data set [19] deals with PA-1. The experiment in a line: Antitumor activity against human PA-1 cells xenografted in female BALB/c nude mouse assessed tumor growth inhibition at 60 mg/kg, po administered once daily for 21 days. Type of data set: functional. The following applies: PA-1, 504 h, time 21 day, read-out: TGI.
For data set [20], the target named is Dual specificity protein kinase CLK4 (Homo sapiens) (UniProt Q9HAZ1). The experiment in a line: Inhibition of CLK4 (unknown origin) at 1 uM incubated for 40 mins in presence of Mg/ATP mix relative to control.
A further data set relates to ES-2. The experiment in a line: Antimetastatic activity against human ES2 cells xenografted in mouse assessed as decrease in the number of peritoneal nodules at 60 mg/kg, po administered daily for 12 days. To be noted: time 12.0 day. Type of data set: functional, organism-based.
Data set [21] deals with Dual specificity protein kinase CLK1 (Homo sapiens) (UniProt P49759). The experiment in a line: Inhibition of CLK1 (unknown origin) at 1 uM incubated for 40 mins in presence of Mg/ATP mix relative to control.
Data set [22] in a line: Cmax in Sprague-Dawley rat at 20 mg/kg, po. Further details: dose 20 mg/kg, route po. Type of data set: ADME, organism-based. The following applies: in vivo.
Data set [23] can be described thus: Toxicity in female BALB/c nude mouse xenografted with human PA-1 cells assessed as spleen damage at 60 mg/kg, po administered once daily for 21 days. It is filed as organism-based. To be noted: in vivo, 504 h, time 21 day.
Data set [24] relates to PA-1. The experiment in a line: Inhibition of invasion of human PA-1 cells at 2 uM measured after 24 hrs by Transwell assay. Type of data set: functional, cell-based.
The nature of data set [25]: Toxicity in female BALB/c nude mouse xenografted with human PA-1 cells assessed as lung damage at 60 mg/kg, po administered once daily for 21 days. It is filed as organism-based. To be noted: in vivo, 504 h, time 21 day.
Data set [26] in a line: AUClast in Sprague-Dawley rat at 20 mg/kg, po. Type of data set: ADME, organism-based. Also noted: time 0 - last, dose 20 mg/kg, route po. The following applies: in vivo.
Data set [27] is described as follows: Toxicity in female BALB/c nude mouse xenografted with human PA-1 cells assessed as kidney damage at 60 mg/kg, po administered once daily for 21 days. It is filed as organism-based. The following applies: in vivo, 504 h, time 21 day.
Data set [28] has as its target T1, Focal adhesion kinase 1. Put plainly: Inhibition of FAK (unknown origin) using Fluorescein-Poly GAT as substrate incubated for 30 mins and measured after 60 mins by Lanthascreen assay. (In general: In TR-FRET formats the signal depends on donor and acceptor labels being close together.)
Data set [29] in a line: Metabolic stability in human liver microsomes assessed as parent compound remaining incubated for 120 mins in presence of NADPH by LC-MS/MS analysis. To be noted: read-out: Stability. It is filed as ADME, Microsome. On the technique in general: Microsomes from liver hold many membrane-bound enzymes, among them those of drug oxidation.

Sequence of Leucine-rich repeat serine/threonine-protein kinase 2 (Homo sapiens) (Q5S007 whole entry): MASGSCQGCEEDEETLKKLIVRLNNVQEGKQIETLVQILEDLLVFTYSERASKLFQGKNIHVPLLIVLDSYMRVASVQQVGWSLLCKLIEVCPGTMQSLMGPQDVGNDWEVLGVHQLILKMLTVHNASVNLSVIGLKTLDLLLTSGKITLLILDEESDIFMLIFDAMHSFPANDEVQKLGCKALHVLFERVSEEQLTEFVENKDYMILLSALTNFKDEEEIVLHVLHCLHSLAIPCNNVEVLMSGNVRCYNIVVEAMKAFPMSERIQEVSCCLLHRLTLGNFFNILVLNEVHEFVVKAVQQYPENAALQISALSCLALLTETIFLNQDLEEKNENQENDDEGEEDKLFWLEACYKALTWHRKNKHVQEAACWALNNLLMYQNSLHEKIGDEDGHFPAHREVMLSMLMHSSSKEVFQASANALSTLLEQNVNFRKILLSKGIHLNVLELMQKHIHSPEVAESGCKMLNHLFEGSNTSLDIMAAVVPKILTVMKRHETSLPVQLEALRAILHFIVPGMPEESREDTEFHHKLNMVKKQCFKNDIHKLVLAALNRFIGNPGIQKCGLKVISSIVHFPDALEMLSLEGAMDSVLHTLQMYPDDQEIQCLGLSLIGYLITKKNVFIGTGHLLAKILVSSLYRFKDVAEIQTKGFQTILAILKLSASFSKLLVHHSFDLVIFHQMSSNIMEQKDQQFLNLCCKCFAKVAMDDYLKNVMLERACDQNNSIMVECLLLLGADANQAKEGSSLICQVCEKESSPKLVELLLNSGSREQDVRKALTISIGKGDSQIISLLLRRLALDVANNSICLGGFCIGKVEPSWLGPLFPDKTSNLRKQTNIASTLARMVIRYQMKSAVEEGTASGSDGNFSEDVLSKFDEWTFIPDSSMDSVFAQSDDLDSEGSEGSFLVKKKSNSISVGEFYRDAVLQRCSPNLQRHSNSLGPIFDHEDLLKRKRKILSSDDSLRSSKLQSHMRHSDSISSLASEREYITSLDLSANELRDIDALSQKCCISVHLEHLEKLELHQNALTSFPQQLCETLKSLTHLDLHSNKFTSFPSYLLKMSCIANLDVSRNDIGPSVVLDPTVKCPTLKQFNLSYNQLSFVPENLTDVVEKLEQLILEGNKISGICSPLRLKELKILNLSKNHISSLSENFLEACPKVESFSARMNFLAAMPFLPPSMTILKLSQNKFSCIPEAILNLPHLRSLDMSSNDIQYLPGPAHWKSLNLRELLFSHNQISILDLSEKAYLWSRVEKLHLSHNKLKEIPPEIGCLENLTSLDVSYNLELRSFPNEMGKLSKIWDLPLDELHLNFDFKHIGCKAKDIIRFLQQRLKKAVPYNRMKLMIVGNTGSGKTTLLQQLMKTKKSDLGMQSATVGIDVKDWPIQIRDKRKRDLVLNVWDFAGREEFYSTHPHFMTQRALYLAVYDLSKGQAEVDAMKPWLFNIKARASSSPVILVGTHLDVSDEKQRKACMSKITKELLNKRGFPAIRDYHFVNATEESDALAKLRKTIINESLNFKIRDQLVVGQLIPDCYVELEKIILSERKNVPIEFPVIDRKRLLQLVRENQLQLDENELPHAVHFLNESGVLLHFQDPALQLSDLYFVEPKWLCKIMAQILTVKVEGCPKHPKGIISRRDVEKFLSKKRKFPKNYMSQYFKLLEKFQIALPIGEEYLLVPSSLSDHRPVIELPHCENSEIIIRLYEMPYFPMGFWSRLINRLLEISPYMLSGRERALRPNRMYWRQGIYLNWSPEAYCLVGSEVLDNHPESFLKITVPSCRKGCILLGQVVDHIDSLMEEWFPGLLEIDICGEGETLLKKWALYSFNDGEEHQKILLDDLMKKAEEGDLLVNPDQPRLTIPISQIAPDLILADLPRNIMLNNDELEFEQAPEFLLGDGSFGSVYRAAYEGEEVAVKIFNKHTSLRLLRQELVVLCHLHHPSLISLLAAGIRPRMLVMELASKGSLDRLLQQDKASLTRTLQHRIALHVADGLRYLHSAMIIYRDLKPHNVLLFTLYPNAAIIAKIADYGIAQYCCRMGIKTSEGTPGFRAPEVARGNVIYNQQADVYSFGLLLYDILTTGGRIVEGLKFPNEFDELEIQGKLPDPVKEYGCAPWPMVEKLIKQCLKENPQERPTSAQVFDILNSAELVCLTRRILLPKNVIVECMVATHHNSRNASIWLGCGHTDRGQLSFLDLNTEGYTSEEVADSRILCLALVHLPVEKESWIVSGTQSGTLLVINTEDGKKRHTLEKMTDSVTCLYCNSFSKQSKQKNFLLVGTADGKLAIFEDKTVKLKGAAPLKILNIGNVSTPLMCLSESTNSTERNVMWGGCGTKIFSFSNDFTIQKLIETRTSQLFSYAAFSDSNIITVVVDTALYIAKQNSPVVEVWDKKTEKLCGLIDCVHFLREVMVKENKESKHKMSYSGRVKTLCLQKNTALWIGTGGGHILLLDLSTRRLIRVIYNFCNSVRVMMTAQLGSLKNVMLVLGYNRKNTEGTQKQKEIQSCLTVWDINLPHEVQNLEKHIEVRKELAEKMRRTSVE

Broadly, the inhibition is the drop in the measured response relative to a control, in per cent. Regarding `CNC(=O)c1ccc(Nc2ncc(C(F)(F)F)c(NCc3nccnc3N(C)S(C)(=O)=O)n2)cc1`, the inhibition (in data set [1]; in the data set filed under Homo sapiens) was > 90% each time.

As a reminder, the solubility is how much of the substance goes into solution per volume. Read a high solubility as much dissolved substance. The term half-life denotes the time needed for the level to fall by half in the phase considered. As a reminder, the AUC is concentration integrated over time. Read a low AUC as low exposure. In general, Tmax refers to the time from dosing to the highest level. One may read the Cmax as the peak of the concentration-time curve. One may read the AUC(0-t) as the area under the concentration-time curve up to a stated or last time point. As a reminder, the IC50 is the concentration that inhibits the measured activity by half. Higher therefore signals weaker potency in that assay. For `COc1cc(C(=O)NC2CCNCC2)ccc1Nc1nc(Oc2cccc3c2C(=O)CC3)c2cc[nH]c2n1`, the outcome in the data set on PA-1 [2], with PA-1 [14] and with ES-2 was Active. Further, the Activity entry in data set [3], in data set [8], in data set [10], in [23], in data set [25] and in data set [27] was “Non-Toxic” in each case. In addition, the inhibition entry in the data set on PA-1 [4], on Focal adhesion kinase 1 [11] and with PA-1 [24] was “Active” throughout. For the same molecule, the CLint scaled in data set [5] was found to be 7.7 mL/min/kg. Moreover, the inhibition amounted to 96% in [6]; 100% in [9]; 87% in data set [13]; 92% in [15]; 97% in [20]; 92% in [21]. Also, in data set [7], the solubility came to 456 µg/mL (≈ 890 µM). Further, the half-life in [12] is 1.88 h; in [18], 4.08 h. The AUC in data set [16] is 78.8 ng·h/mL. Also, in data set [17], the Tmax amounted to 0.28 h. For the same molecule, in the data set with PA-1 [19], the inhibition in vivo at 60 mg/kg was found to be 72.5%. Also, the Cmax in data set [22] is 21.7 ng/mL. Moreover, the exposure AUC(0-t) in [26] came out at 59.6 ng·h/mL. This molecule also showed an IC50 at Focal adhesion kinase 1 [28] of 1.89 nM. The remaining at 2 h in data set [29] turned out to be 48.6%.
